Data taken from patent US10654818B2, “Furane derivatives as inhibitors of ATAD2” (BAYER PHARMA AKTIENGESELLSCHAFT, priority 2015, dated 2020).

These compounds were tested against T1, recombinant, N-terminally GST-tagged ATAD2 bromodomain amino acids 981-1108 (Homo sapiens, UniProt Q6PL18) (assay: TR-FRET assay: disruption of the interaction between ATAD2 and acetylated Histone H4 (Ac-H4) peptide). Settings: inhibition of ATAD2/Ac-H4 complex formation; 10 nM ATAD2, 50 nM Ac-H4 peptide.
T1 construct: ATAD2 bromodomain amino acids 981-1108; made in house; host or cells: E. coli
T1 sequence (Q6PL18 981-1108): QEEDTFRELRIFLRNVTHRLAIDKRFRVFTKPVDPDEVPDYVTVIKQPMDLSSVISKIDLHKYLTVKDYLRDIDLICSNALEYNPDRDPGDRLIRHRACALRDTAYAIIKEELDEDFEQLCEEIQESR
Assay type: binding
From the text: The ability of the compounds described in the present invention to disrupt the interaction between ATAD2 and acetylated Histone H4 (Ac-H4) was used as quantitative measure of their ATAD2-binding affinities.
To this end a TR-FRET assay which detects the binding of an Ac-H4-derived synthetic peptide (purchased from e.g. Biosyntan (Berlin, Germany)) of sequence HSGRGKGGGGKGLGK(Ac)GGAKRHRK-Biotin to recombinant, N-terminally GST-tagged ATAD2 bromodomain amino acids 981-1108. The protein was produced in-house via E. coli expression followed by GSH-Sepharose affinity- and Superdex S200-size exclusion chromatography purification.
Typically, 11 different concentrations of each compound (0.1 nM, 0.33 nM, 1.1 nM, 3.8 nM, 13 nM, 44 nM, 0.15 μM, 0.51 μM, 1.7 μM, 5.9 μM and 20 μM) were tested in duplicate within the same microtiter plate. To this end, 100-fold concentrated compound solutions (in DMSO) were previously prepared with a Precision Pippeting System (BioTek) by serial dilution (1:3.4) of 2 mM stocks in clear, low-volume 384-well microtiter source plates (Greiner Bio-One). Subsequently, 50 nl of compounds were transferred into black, low-volume test plates from the same supplier using a Hummingbird capillary based liquid handling instrument (Digilab). Tests were started by the addition of 2 μl of 2.5-fold concentrated ATAD2 solution (25 nM=10 nM final concentration in the 5 μl assay volume) in aqueous assay buffer [50 mM HEPES pH 7.5, 50 mM potassium fluoride (KF), 100 mM sodium chloride (NaCl), 0.25 mM CHAPS, 0.05% bovine serum albumine (BSA) and 1 mM dithiothreitol (DTT)] to the compounds in the test plate with a Multidrop dispenser (Thermo-Fisher). Test plates were then incubated 10′ at 22° C., in order to allow pre-equilibration of putative compound-ATAD2 complexes. Subsequently, 3 μl of a 1.67-fold concentrated solution containing Ac-H4 peptide (83.5 nM=50 nM final concentration) and TR-FRET detection reagents [16.7 nM Anti-GST-XL665 (Cisbio), =10 nM final concentration and 4.17 nM Lance EU W-1024 Streptavidin Europium Chelate (Perkin-Elmer)=2.5 nM final concentration were dispensed into the plates.
The mixture was further incubated in the dark for 1 hour at 22° C. Finally the inhibition of the formation of ATAD2/Ac-H4 complexes was assessed by measurement of the resonance energy transfer from the Streptavidin-Eu-Chelate to the anti-GST-XL665 antibody present in the reaction. To this end, the fluorescence emissions at 622 nm and 665 nm after excitation at 337 nm were measured in a TR-FRET reader, e.g. a Rubystar or Pherastar (both from BMG Lab Technologies) or a Viewlux (Perkin-Elmer) and the ratio of the emissions at 665 nm and at 622 nm was taken as indicator for the amount of ATAD2/Ac-H4 complexes in equilibrium.
The data were normalized using two sets of control wells (16 each). The first accounted for 100% ATAD2/Ac-H4 binding (0% inhibition), and contained all reaction components but DMSO instead of inhibitors. The second represented 0% ATAD2/Ac-H4 binding (100% inhibition), and included all assay components except ATAD2. IC50 values were calculated by fitting the normalized inhibition data to a 4-parameter logistic equation using either Screener software (Genedata) or a Bayer-proprietary analysis software.

Compound	IC50 [nM]
Cc1ccc([C@@H](C)NCc2ccc(-c3ccc(Cl)c(C(=O)N[C@H](Cc4ccc(C#N)cc4)c4ncn[nH]4)c3)o2)cc1 [Example 20, 2-chloro-N-[(1R)-2-(4-cyanophenyl)-1-(1H-1,2,4-triazol-5-yl)ethyl]-5-[5-({[(1R)-1-(4-methylphenyl)ethyl]amino}methyl)-2-furyl]benzamide]	729
Cc1ccc([C@@H](C)NCc2ccc(-c3ccc(Cl)c(C(=O)N[C@H](Cc4ccc(C#N)cc4)CN4CCN(C)CC4)c3)o2)cc1 [Example 21, 2-chloro-N-[(2R)-1-(4-cyanophenyl)-3-(4-methylpiperazin-1-yl)propan-2-yl]-5-[5-({[(1R)-1-(4-methylphenyl)ethyl]amino}methyl)-2-furyl]benzamide]	580
Cc1ccc([C@@H](C)NCc2ccc(-c3ccc(Cl)c(C(=O)N[C@H](Cc4ccc(C#N)cc4)CN4CCOCC4)c3)o2)cc1 [Example 22, 2-chloro-N-[(2R)-1-(4-cyanophenyl)-3-(morpholin-4-yl)propan-2-yl]-5-[5-({[(1R)-1-(4-methylphenyl)ethyl]amino}methyl)-2-furyl]benzamide]	854
Cc1ccc([C@@H](C)NCc2ccc(-c3ccc(Cl)c(C(=O)N[C@@H](CNCCO)Cc4ccc(C#N)cc4)c3)o2)cc1 [Example 23, 2-chloro-N-{(2R)-1-(4-cyanophenyl)-3-[(2-hydroxyethyl)amino]propan-2-yl}-5-[5-({[(1R)-1-(4-methylphenyl)ethyl]amino}methyl)-2-furyl]benzamide]	561
Cc1ccc([C@@H](C)NCc2ccc(-c3ccc(Cl)c(C(=O)N[C@H](Cc4ccc(C#N)cc4)CN(C)C)c3)o2)cc1 [Example 24, 2-chloro-N-[(2R)-1-(4-cyanophenyl)-3-(dimethylamino)propan-2-yl]-5-[5-({[(1R)-1-(4-methylphenyl)ethyl]amino}methyl)-2-furyl]benzamide]	598
Cc1ccc([C@@H](C)NCc2ccc(-c3ccc(Cl)c(C(=O)N[C@@H](CCN4CCN(C)CC4)Cc4ccc(C#N)cc4)c3)o2)cc1 [Example 25, 2-chloro-N-[(2R)-1-(4-cyanophenyl)-4-(4-methylpiperazin-1-yl)butan-2-yl]-5-[5-({[(1R)-1-(4-methylphenyl)ethyl]amino}methyl)-2-furyl]benzamide]	352
Cc1ccc([C@@H](C)NCc2ccc(-c3ccc(Cl)c(C(=O)N[C@@H](CCNC(C)C)Cc4ccc(C#N)cc4)c3)o2)cc1 [Example 26, 2-chloro-N-[(2R)-1-(4-cyanophenyl)-4-(isopropylamino)butan-2-yl]-5-[5-({[(1R)-1-(4-methylphenyl)ethyl]amino}methyl)-2-furyl]benzamide]	331
Cc1ccc([C@@H](C)NCc2ccc(-c3ccc(Cl)c(C(=O)N[C@@H](CCN4CCN[C@H](C)C4)Cc4ccc(C#N)cc4)c3)o2)cc1 [Example 27, 2-chloro-N-{(2R)-1-(4-cyanophenyl)-4-[(3R)-3-methylpiperazin-1-yl]butan-2-yl}-5-[5-({[(1R)-1-(4-methylphenyl)ethyl]amino}methyl)-2-furyl]benzamide]	116
Cc1ccc([C@@H](C)NCc2ccc(-c3ccc(Cl)c(C(=O)N[C@@H](CCN4CCN[C@@H](C)C4)Cc4ccc(C#N)cc4)c3)o2)cc1 [Example 28, 2-chloro-N-{(2R)-1-(4-cyanophenyl)-4-[(3S)-3-methylpiperazin-1-yl]butan-2-yl}-5-[5-({[(1R)-1-(4-methylphenyl)ethyl]amino}methyl)-2-furyl]benzamide]	148
Cc1ccc([C@@H](C)NCc2ccc(-c3ccc(Cl)c(C(=O)N[C@@H](CCN4CCOCC4)Cc4ccc(C#N)cc4)c3)o2)cc1 [Example 29, 2-chloro-N-[(2R)-1-(4-cyanophenyl)-4-(morpholin-4-yl)butan-2-yl]-5-[5-({[(1R)-1-(4-methylphenyl)ethyl]amino}methyl)-2-furyl]benzamide]	675
Cc1ccc([C@@H](C)NCc2ccc(-c3ccc(Cl)c(C(=O)N[C@H](Cc4ccc(C#N)cc4)C(=O)NC4CCN(C)CC4)c3)o2)cc1 [Example 30, Nα-{2-chloro-5-[5-({[(1R)-1-(4-methylphenyl)ethyl]amino}methyl)-2-furyl]benzoyl}-4-cyano-N-(1-methylpiperidin-4-yl)-D-phenylalaninamide]	253
Cc1ccc([C@@H](C)NCc2ccc(-c3ccc(Cl)c(C(=O)N[C@@H](CCN4CCN(C)C[C@@H]4C)Cc4ccc(C#N)cc4)c3)o2)cc1 [Example 31, 2-chloro-N-{(2R)-1-(4-cyanophenyl)-4-[(2S)-2,4-dimethylpiperazin-1-yl]butan-2-yl}-5-[5-({[(1R)-1-(4-methylphenyl)ethyl]amino}methyl)-2-furyl]benzamide]	297
Cc1ccc([C@@H](C)NCc2ccc(-c3ccc(Cl)c(C(=O)N[C@@H](CCN4CCN(C)C[C@H]4C)Cc4ccc(C#N)cc4)c3)o2)cc1 [Example 32, 2-chloro-N-{(2R)-1-(4-cyanophenyl)-4-[(2R)-2,4-dimethylpiperazin-1-yl]butan-2-yl}-5-[5-({[(1R)-1-(4-methylphenyl)ethyl]amino}methyl)-2-furyl]benzamide]	130
Cc1ccc([C@@H](C)NCc2ccc(-c3ccc(Cl)c(C(=O)N[C@@H](CCN[C@@H]4CCN(C)C4)Cc4ccc(C#N)cc4)c3)o2)cc1 [Example 34, 2-chloro-N-[(2R)-1-(4-cyanophenyl)-4-{[(3R)-1-methylpyrrolidin-3-yl]amino}butan-2-yl]-5-[5-({[(1R)-1-(4-methylphenyl)ethyl]amino}methyl)-2-furyl]benzamide]	423
Cc1ccc([C@@H](C)NCc2ccc(-c3ccc(Cl)c(C(=O)N[C@@H](CCN[C@H]4CCN(C)C4)Cc4ccc(C#N)cc4)c3)o2)cc1 [Example 35, 2-chloro-N-[(2R)-1-(4-cyanophenyl)-4-{[(3S)-1-methylpyrrolidin-3-yl]amino}butan-2-yl]-5-[5-({[(1R)-1-(4-methylphenyl)ethyl]amino}methyl)-2-furyl]benzamide]	466
Cc1ccc([C@@H](C)NCc2ccc(-c3ccc(Cl)c(C(=O)N[C@@H](CO)Cc4ccc(C#N)c(C)c4)c3)o2)cc1 [Example 37, 2-chloro-N-[(2R)-1-(4-cyano-3-methylphenyl)-3-hydroxypropan-2-yl]-5-[5-({[(1R)-1-(4-methylphenyl)ethyl]amino}methyl)-2-furyl]benzamide]	443
Cc1ccc([C@@H](C)NCc2ccc(-c3ccc(Cl)c(C(=O)N[C@@H](CO)Cc4cc(F)c(C#N)cc4C)c3)o2)cc1 [Example 38, 2-chloro-N-[(2R)-1-(4-cyano-5-fluoro-2-methylphenyl)-3-hydroxypropan-2-yl]-5-[5-({[(1R)-1-(4-methylphenyl)ethyl]amino}methyl)-2-furyl]benzamide]	365
COc1cc(C#N)ccc1C[C@H](CO)NC(=O)c1cc(-c2ccc(CN[C@H](C)c3ccc(C)cc3)o2)ccc1Cl [Example 39, 2-chloro-N-[(2R)-1-(4-cyano-2-methoxyphenyl)-3-hydroxypropan-2-yl]-5-[5-({[(1R)-1-(4-methylphenyl)ethyl]amino}methyl)-2-furyl]benzamide]	585
Cc1ccc([C@@H](C)NCc2ccc(-c3ccc(Cl)c(C(=O)N[C@@H](CO)Cc4ccc(C#N)c(N)c4)c3)o2)cc1 [Example 40, N-[(2R)-1-(3-amino-4-cyanophenyl)-3-hydroxypropan-2-yl]-2-chloro-5-[5-({[(1R)-1-(4-methylphenyl)ethyl]amino}methyl)-2-furyl]benzamide]	781
